The results in this text go back to patent publication US9663473B2 (Actelion Pharmaceuticals Ltd, priority 2013, dated 2017).

pEC50: −log10 of the molar value. Structures can show the parent of a compound that is named as a salt.

As a reminder, the pEC50 is the EC50 on a negative log10 scale, so that one unit is a factor of ten.

This test addresses T1, recombinant human ALX receptor (Homo sapiens, UniProt P25090).
T1 construct: expressed in transfected cells; host or cells: HEK293 (HEK293-hALXR-Gα16)
T1 sequence (P25090 1-351): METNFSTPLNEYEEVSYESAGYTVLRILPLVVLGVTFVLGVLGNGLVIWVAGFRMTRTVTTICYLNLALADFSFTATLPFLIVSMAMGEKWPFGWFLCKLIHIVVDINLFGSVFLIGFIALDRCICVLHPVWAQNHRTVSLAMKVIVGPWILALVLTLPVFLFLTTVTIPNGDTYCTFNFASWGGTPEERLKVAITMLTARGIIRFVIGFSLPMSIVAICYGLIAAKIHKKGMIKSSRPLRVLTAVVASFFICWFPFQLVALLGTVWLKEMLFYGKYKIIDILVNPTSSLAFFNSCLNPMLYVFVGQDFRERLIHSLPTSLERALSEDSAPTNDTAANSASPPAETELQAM
Description: Intracellular calcium measurements (FLIPR), ALX receptor agonistic activity. It is filed as cell-based. The conditions noted are these: HEK293-hALXR-Gα16 cells, Fluo-4 calcium signal, normalized to WKYMVm 10 nM. In short, it runs like this:
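Agonist-induced calcium flux was read by FLIPR (488/540 nm) as baseline-subtracted peak emission, expressed relative to WKYMVm at 10 nM final. Cells used: HEK293-hALXR-Gα16, dye-loaded 60 min at 37° C. with 1 μM Fluo-4 AM before compound dose-response addition.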
(A change in cytosolic calcium serves as a functional read-out for many receptors and channels.)
For `O=C(N[C@H](Cc1ccc(Br)cc1)c1nc2ccccc2[nH]1)N[C@H]1CC[C@H](O)CC1` [Example 35, 1-((R)-1-(1H-Benzo[d]imidazol-2-yl)-2-(4-bromophenyl)ethyl)-3-(trans-4-hydroxycyclohexyl)urea], the pEC50 was 8.27. Under `COc1cc(F)c(CC(NC(=O)N[C@H]2CC[C@](C)(O)CC2)c2nc3ccccc3[nH]2)c(F)c1` (mixture of isomers) [Example 236, 1-(1-(1H-Benzo[d]imidazol-2-yl)-2-(2,6-difluoro-4-methoxyphenyl)ethyl)-3-(trans-4-hydroxy-4-methylcyclohexyl)urea] stands 8.46; under `C[C@]1(O)CC[C@H](NC(=O)NC(Cc2ccc(Br)c(F)c2)c2nc3ccccc3[nH]2)CC1` (mixture of isomers) [Example 231, 1-(1-(1H-Benzo[d]imidazol-2-yl)-2-(4-bromo-3-fluorophenyl)ethyl)-3-(trans-4-hydroxy-4-methylcyclohexyl)urea], 8.28. Under `COc1ccc(C[C@@H](NC(=O)NC2CCCC(C(=O)O)C2)c2nc3ccccc3[nH]2)cc1` (stereo partly drawn) [Example 229, Lithium 3-(3-((R)-1-(1H-benzo[d]imidazol-2-yl)-2-(4-methoxyphenyl)ethyl)ureido)cyclohexanecarboxylate] stands 7.03; under `COc1ccc(C[C@@H](NC(=O)NC2CCCCCC2)c2nc3ccccc3[nH]2)cc1` [Example 99, (R)-1-(1-(1H-Benzo[d]imidazol-2-yl)-2-(4-methoxyphenyl)ethyl)-3-cycloheptylurea], 7.24. The result for `COc1ccc(C[C@@H](NC(=O)NCCc2ccc3c(c2)OCO3)c2nc3ccccc3[nH]2)cc1` [Example 299, (R)-1-(1-(1H-Benzo[d]imidazol-2-yl)-2-(4-methoxyphenyl)ethyl)-3-(2-(benzo[d][1,3]dioxol-5-yl)ethyl)urea] reads 6.78; that for `COc1ccc(C[C@@H](NC(=O)NCCC#N)c2nc3ccccc3[nH]2)cc1` [Example 69, (R)-1-(1-(1H-Benzo[d]imidazol-2-yl)-2-(4-methoxyphenyl)ethyl)-3-(2-cyanoethyl)urea], 6.20; that for `COc1ccc(C[C@@H](NC(=O)NCCc2cc(C)ccc2C)c2nc3ccccc3[nH]2)cc1` [Example 306, (R)-1-(1-(1H-Benzo[d]imidazol-2-yl)-2-(4-methoxyphenyl)ethyl)-3-(2,5-dimethylphenethyl)urea], 7.22. Regarding `COc1cc(F)c(CC(NC(=O)N[C@H]2CC[C@H](O)CC2)c2nc3cc(F)ccc3[nH]2)c(F)c1` (single isomer, unassigned; ent-1) [Example 366, 1-(2-(2,6-Difluoro-4-methoxyphenyl)-1-(5-fluoro-1H-benzo[d]imidazol-2-yl)ethyl)-3-(trans-4-hydroxycyclohexyl)urea (ent-1)], the pEC50 was 9.40.

For `COc1ccc(CC(NC(=O)Nc2cc(C)nn2-c2ccccc2)c2nc3ccccc3[nH]2)cc1` (stereo not drawn) [Example 408, 1-(1-(1H-benzo[d]imidazol-2-yl)-2-(4-methoxyphenyl)ethyl)-3-(3-methyl-1-phenyl-1H-pyrazol-5-yl)urea], the pEC50 is 7.70. Under `COc1ccc(C[C@@H](NC(=O)NCCN2CCc3ccccc3C2)c2nc3ccccc3[nH]2)cc1` [Example 297, (R)-1-(1-(1H-Benzo[d]imidazol-2-yl)-2-(4-methoxyphenyl)ethyl)-3-(2-(3,4-dihydroisoquinolin-2(1H)-yl)ethyl)urea] stands 6.66; under `O=C(N[C@H](Cc1ccc(C(F)(F)F)cc1)c1nc2cc(F)ccc2[nH]1)NC12CCC(O)(CC1)CC2` [Example 267, (R)-1-(1-(5-Fluoro-1H-benzo[d]imidazol-2-yl)-2-(4-(trifluoromethyl)phenyl)ethyl)-3-(4-hydroxybicyclo[2.2.2]octan-1-yl)urea], 7.85. For `COc1ccc(C[C@@H](NC(=O)NCc2cccc(C)c2)c2nc3ccccc3[nH]2)cc1` [Example 276, (R)-1-(1-(1H-Benzo[d]imidazol-2-yl)-2-(4-methoxyphenyl)ethyl)-3-(3-methylbenzyl)urea], the pEC50 was 6.64. For the compound `COc1ccc(C[C@@H](NC(=O)N[C@H]2CCNC2)c2nc3ccccc3[nH]2)cc1` [Example 126, 1-((R)-1-(1H-Benzo[d]imidazol-2-yl)-2-(4-methoxyphenyl)ethyl)-3-((S)-pyrrolidin-3-yl)urea], the pEC50 is 6.22.

For `COc1ccc(CC(NC(=O)NCc2ccon2)c2nc3ccccc3[nH]2)cc1` (stereo not drawn) [Example 384, 1-(1-(1H-Benzo[d]imidazol-2-yl)-2-(4-methoxyphenyl)ethyl)-3-(isoxazol-3-ylmethyl)urea], the pEC50 was 5.91.

As for `COc1ccc(C[C@@H](NC(=O)N[C@H](C)c2ccccc2)c2nc3ccccc3[nH]2)cc1` [Example 349, 1-((R)-1-(1H-Benzo[d]imidazol-2-yl)-2-(4-methoxyphenyl)ethyl)-3-((R)-1-phenylethyl)urea], the pEC50 was 6.54. Under `COc1ccc(CC(NC(=O)N[C@H]2CC[C@](C)(O)CC2)c2nc3ccccc3[nH]2)c(F)c1` (mixture of isomers) [Example 234, 1-(1-(1H-Benzo[d]imidazol-2-yl)-2-(2-fluoro-4-methoxyphenyl)ethyl)-3-(trans-4-hydroxy-4-methylcyclohexyl)urea] stands 8.29; under `COc1ccc(C[C@@H](NC(=O)NCc2ccccn2)c2nc3ccccc3[nH]2)cc1` [Example 268, (R)-1-(1-(1H-Benzo[d]imidazol-2-yl)-2-(4-methoxyphenyl)ethyl)-3-(pyridin-2-ylmethyl)urea], 6.18. The result for `COC(=O)c1ccc([C@H](C)NC(=O)N[C@H](Cc2ccc(OC)cc2)c2nc3ccccc3[nH]2)cc1` [Example 337, Methyl 4-((S)-1-(3-((R)-1-(1H-benzo[d]imidazol-2-yl)-2-(4-methoxyphenyl)ethyl)ureido)ethyl)benzoate] reads 6.42.

In the case of `COc1ccc(C[C@@H](NC(=O)NC(C)c2ccc(OC(F)F)cc2)c2nc3ccccc3[nH]2)cc1` (stereo partly drawn) [Example 271, 1-((R)-1-(1H-Benzo[d]imidazol-2-yl)-2-(4-methoxyphenyl)ethyl)-3-(1-(4-(difluoromethoxy)phenyl)ethyl)urea], the pEC50 is 6.92. Under `COc1ccc(C[C@@H](NC(=O)NCC2CCc3ccccc32)c2nc3ccccc3[nH]2)cc1` (stereo partly drawn) [Example 72, 1-((R)-1-(1H-Benzo[d]imidazol-2-yl)-2-(4-methoxyphenyl)ethyl)-3-((2,3-dihydro-1H-inden-1-yl)methyl)urea] stands 7.17. With `COc1ccc(CC(NC(=O)N[C@H]2CC[C@@](C)(O)CC2)c2nc3ccccc3[nH]2)cc1F` (relative stereo) [Example 227, 1-(1-(1H-Benzo[d]imidazol-2-yl)-2-(3-fluoro-4-methoxyphenyl)ethyl)-3-(cis-4-hydroxy-4-methylcyclohexyl)urea], the pEC50 was 7.01.

On to `COc1ccc(C[C@@H](NC(=O)NC23CCC(O)(CC2)CC3)c2nc3ccccc3[nH]2)cc1` [Example 166, (R)-1-(1-(1H-Benzo[d]imidazol-2-yl)-2-(4-methoxyphenyl)ethyl)-3-(4-hydroxybicyclo[2.2.2]octan-1-yl)urea], for which the pEC50 is 8.68. Under `COc1ccc(C(C)C(NC(=O)N[C@H]2CC[C@H](O)CC2)c2nc3ccccc3[nH]2)cc1` (relative stereo) [Example 395, 1-(1-(1H-Benzo[d]imidazol-2-yl)-2-(4-methoxyphenyl)propyl)-3-(trans-4-hydroxycyclohexyl)urea] stands 8.19; under `COc1ccc(C[C@@H](NC(=O)NCc2cccnc2OCC(F)(F)F)c2nc3ccccc3[nH]2)cc1` [Example 64, (R)-1-(1-(1H-Benzo[d]imidazol-2-yl)-2-(4-methoxyphenyl)ethyl)-3-((2-(2,2,2-trifluoroethoxy)pyridin-3-yl)methyl)urea hydrochloride], 7.29.

`COc1ccc(C[C@@H](NC(=O)NCCN2CCc3ccccc32)c2nc3ccccc3[nH]2)cc1` [Example 286, (R)-1-(1-(1H-Benzo[d]imidazol-2-yl)-2-(4-methoxyphenyl)ethyl)-3-(2-(indolin-1-yl)ethyl)urea]: the pEC50 is 6.99. Turning to `COCCNC(=O)N[C@H](Cc1ccc(OC)cc1)c1nc2ccccc2[nH]1` [Example 59, (R)-1-(1-(1H-Benzo[d]imidazol-2-yl)-2-(4-methoxyphenyl)ethyl)-3-(2-methoxyethyl)urea hydrochloride], the pEC50 was 6.50. Turning to `O=C(N[C@H](Cc1ccc(Br)cc1)c1nc2ccc(F)cc2[nH]1)N[C@H]1CC[C@H](O)CC1` [Example 133, 1-((R)-2-(4-Bromophenyl)-1-(6-fluoro-1H-benzo[d]imidazol-2-yl)ethyl)-3-(trans-4-hydroxycyclohexyl)urea], the pEC50 is 8.47. The result for `COc1ccc(C[C@@H](NC(=O)NCCc2ccncc2)c2nc3ccccc3[nH]2)cc1` [Example 295, (R)-1-(1-(1H-Benzo[d]imidazol-2-yl)-2-(4-methoxyphenyl)ethyl)-3-(2-(pyridin-4-yl)ethyl)urea] reads 6.19; that for `COc1ccc(C[C@@H](NC(=O)N2CC3CCC2CN3)c2nc3ccccc3[nH]2)cc1` (stereo partly drawn) [Example 122, N—((R)-1-(1H-Benzo[d]imidazol-2-yl)-2-(4-methoxyphenyl)ethyl)-2,5-diazabicyclo[2.2.2]octane-2-carboxamide], 7.23.
